Laboratory results from patent US8912141B2, “Treatment of hepatitis C virus” (Panmed Ltd., priority 2011, dated 2014).
Entries after “also recorded” stand apart in the source; their conditions may differ. Read-outs that look alike come from different tables or passages of the source.

How the values were obtained:
[1] = cited from earlier work
HCV replicon = HCV replicon antiviral assay in Huh7 cells, HCV RNA by RT-PCR, 72 hours; combinations analysed by Prichard-Shipman / Bliss independence; type: cell-based, hepatitis C virus
Description: Huh7 cells were maintained at 37° C., in an atmosphere of 5% CO2, in DMEM (Dulbecco's modified Eagle medium) supplemented with 2 mM L-glutamine, non-essential amino acids (NEAA), 10% fetal bovine serum (FBS) and […] geneticin. Cells were sub-divided at a 1:3 or 1:4 ratio every 2-3 days. 24 hours prior to the assay, Huh7 cells were collected, counted, plated in 96-well plates at 7,500 cells/well in […] standard maintenance medium, and incubated in the conditions above. To initiate the assay, culture medium was removed, and cells were washed once with PBS (phosphate buffer saline). For control compounds only, […] assay medium (DMEM with L-glutamine, NEAA, and 10% FBS) was added.
Test compounds were prepared as a 10× stock in assay medium. Serial dilutions of compounds in assay medium were added in a total volume of […] and the plates were then rocked to mix, and incubated as described above for 72 hours.
HCV RNA levels were measured using TaqMan® RT-PCR. Total cellular RNA was isolated and amplified by using a RealTime HCV assay (m1000™ Automated Sample Preparation System and M2000rt™ instrument for reverse transcription, PCR amplification, and detection/quantitation, Abbott Molecular Inc.), which detects and quantitates HCV genotypes 1-6. The molecular genotyping method targets the 5′-untranslated (UTR) region of the virus genome and is based on an amplification of the viral genome. […] A negative control, low positive control and high positive control were also introduced. Results are reported in International Units per ml (IU/ml), and 1 IU/ml=4.3 copies/ml. […]
The effects of drug combinations were evaluated according to the method described by Prichard & Shipman [Antiviral Res 1990, 14:181-205]. The theoretical additive effect was calculated from the dose-response curves of individual compounds by the equation Z=X+Y(1−X) (an equation referred to in the art as a Bliss independence model), where X and Y represent the inhibition produced by the individual compounds and Z represents the theoretical effect produced by the combination of compounds. […]

various proteases = test: Protease inhibition; type: biochemical

## CCN(CCO)CCCC(C)Nc1ccnc2cc(Cl)ccc12 (centres unmarked) [HCQ, 2-[[4-[(7-chloro-4-quinolinyl)amino]pentyl]ethylamino]ethanol]
[1]; in vivo
  toxicity relative to chloroquine: less toxic
[1]; in vivo, listed as hydroxychloroquine
  toxicity relative to chloroquine: one-half as toxic
[1]; treating rheumatologic diseases
  effectiveness relative to chloroquine: one-half to two-thirds as effective as chloroquine
HCV replicon; in combination with GNS-227
  HCQ concentration at which synergy was best achieved: about 6 μM

## C=C[C@@H]1C[C@]1(NC(=O)[C@@H]1C[C@@H](OC(=O)N2Cc3cccc(F)c3C2)CN1C(=O)[C@@H](NC(=O)OC(C)(C)C)C(C)(C)C)C(=O)NS(=O)(=O)C1CC1 [GNS-227]
Various proteases
  protease inhibition activity: exhibit inhibition activity on various proteases; also recorded: exhibit a protease inhibition activity
HCV replicon
  antiviral activity towards HCV: an antiviral activity towards HCV
HCV replicon; in combination with HCQ
  GNS-227 concentration at which synergy was best achieved: about 3.7 nM

## CCN(CC)CCCC(C)Nc1ccnc2cc(Cl)ccc12 (centres unmarked) [chloroquine]
[1]; in vivo
  retinotoxicity relative to hydroxychloroquine: much more retinotoxic
